Assay results: patent US8026359B2, “Fungicidal heterocyclic amines” (E.I. du Pont de Nemours and Company, priority 2007, dated 2011)
Marks after values point to notes of the source that are not given here.

Legend:
Assay type in all cases: in vivo
Fusarium graminearum = experiment: whole plant or invertebrate; details: for Test E disease control rating: 200 ppm, 100 = 100% disease control, 0 = no control relative to controls; for pest or weed control at 200 ppm: Fusarium graminearum, in Triticum aestivum, 192 h, read-out: Test E disease control rating
Alternaria solani = experiment: Test H: tomato early blight, preventive spray on seedlings; details: for pest or weed control at 200 ppm: Alternaria solani, 168 h, read-out: Test H disease control rating
From the text: (§1) General protocol for preparing test suspensions for Tests A-R: The test compounds were first dissolved in acetone in an amount equal to 3% of the final volume and then suspended at the desired concentration (in ppm) in acetone and purified water (50/50 mix) containing 250 ppm of the surfactant Trem® 014 (polyhydric alcohol esters). The resulting test suspensions were then used in tests A-R. In Tests A-M, compounds were sprayed as a 200 ppm test suspension (equivalent to a rate of 500 g/ha) or as a 40 ppm test suspension to the point of runoff on the test plants. In Tests N-R, compounds were sprayed as a 100 g/ha test suspension (equivalent to a rate of 100 ppm) on the test plants at an application volume of 1000 L/ha. The test suspension was sprayed to the point of run-off on wheat seedlings.

Septoria tritici = experiment: Test D: wheat leaf blotch, preventive spray on wheat seedlings; details: 200 ppm, 100 = 100% disease control, 0 = no control relative to controls; for pest or weed control at 200 ppm: Zymoseptoria tritici, 504 h, read-out: Test D disease control rating
From the text: as §1

Septoria nodorum = experiment: Test C: wheat glume blotch, preventive spray on wheat seedlings; details: 200 ppm, 100 = 100% disease control, 0 = no control relative to controls; for pest or weed control at 200 ppm: Parastagonospora nodorum, 216 h, read-out: Test C disease control rating
From the text: as §1

[1] = test system: Puccinia recondita f. sp. tritici; experiment: Test B: wheat leaf rust, preventive spray on wheat seedlings; details: 200 ppm, 100 = 100% disease control, 0 = no control relative to controls; for pest or weed control at 200 ppm: Puccinia recondita, 192 h, read-out: Test B disease control rating
From the text: as §1

[2] = test system: Colletotrichum orbiculare; experiment: Test I: cucumber Colletotrichum anthracnose, preventive spray on cucumber seedlings; details: 100 = 100% disease control, 0 = no control relative to controls; for Test I disease control rating: 200 ppm; for pest or weed control at 200 ppm: Colletotrichum orbiculare, 144 h, read-out: Test I disease control rating
From the text: as §1, with “cucumber” for “wheat”

Botrytis cinerea = experiment: Test F: tomato Botrytis, preventive spray on tomato seedlings; details: for pest or weed control at 200 ppm: Botrytis cinerea, 120 h, read-out: Test F disease control rating
From the text: as §1, with “tomato” for “wheat”

[3] = test system: Erysiphe graminis f. sp. tritici; experiment: Test A: wheat powdery mildew, preventive spray on wheat seedlings; details: 200 ppm; 100 = 100% disease control, 0 = no control relative to controls
From the text: as §1

[4] = 200 ppm, 100 = 100% disease control, 0 = no control relative to controls

| SMILES | Test E disease control rating (Fusarium graminearum) [%] | Test H disease control rating (Alternaria solani; [4]) [%] | Test D disease control rating (Septoria tritici) [%] | Test C disease control rating (Septoria nodorum) [%] | Test B disease control rating [1] [%] | Test I disease control rating [2] [%] | Test F disease control rating (Botrytis cinerea; [4]) [%] | pest or weed control at 200 ppm (Fusarium graminearum) [%] | pest or weed control at 200 ppm (Alternaria solani; [4]) [%] | pest or weed control at 200 ppm (Septoria tritici) [%] | pest or weed control at 200 ppm (Septoria nodorum) [%] | pest or weed control at 200 ppm [1] [%] | pest or weed control at 200 ppm [2] [%] | pest or weed control at 200 ppm (Botrytis cinerea; [4]) [%] | Test H disease control rating (Alternaria solani; 40 ppm (marked *)) | Test F disease control rating (Botrytis cinerea; 40 ppm (marked *)) | Test A disease control rating [3] [%] |
| --- | --- | --- | --- | --- | --- | --- | --- | --- | --- | --- | --- | --- | --- | --- | --- | --- | --- |
| COCC(C)(C)Nc1nccc(-c2ncnc(Nc3cccc(F)c3)n2)n1 [Compound 6] | 84 | 98 | 58 | 100 | 97 | 0 | 85 | – | – | – | – | – | – | – | – | – | – |
| Fc1cccc(Nc2ncnc(-c3ccnc(NC4CC4)n3)n2)c1 [Compound 9] | 80 | 99 | 20 | 99 | 100 | 100 | 73 | – | – | – | – | – | – | – | – | – | – |
| COC[C@H](C)Nc1nccc(-c2ncnc(Nc3ccc(Cl)cc3)n2)n1 [Compound 15] | 0 | 90 | 0 | 92 | 32 | 93 | 0 | – | – | – | – | – | – | – | – | – | – |
| COCC(C)Nc1cc(-c2ccnc(Nc3c(C)cccc3Cl)n2)ncn1 (centres unmarked) [Compound 110, N^2-(2-chloro-6-methylphenyl)-N^6′-(2-methoxy-1-methylethyl) [4,4′-bipyrimidine]-2,6′-diamine] | – | – | – | – | – | – | – | 0 | 89 | 9 | 60 | 89 | 97 | 65 | – | – | – |
| Cc1ccc(Nc2cc(-c3ccnc(NC4CCOCC4)n3)ccn2)c(Cl)c1 [Compound 102, 4-[2-[(2-chloro-4-methylphenyl)amino]-4-pyridinyl]-N-(tetrahydro-2H-pyran-4-yl)-2-pyrimidinamine] | – | – | – | – | – | – | – | 27 | 41 | 3 | 100 | 93 | 0 | 83 | – | – | – |
| COC[C@H](C)Nc1nccc(-c2ncnc(Nc3ccc(Cl)c(Cl)c3)n2)n1 [Compound 14] | 92 | 95 | 0 | 100 | 79 | – | 55 | – | – | – | – | – | – | – | – | – | – |
| CC(=O)OCC(C)Nc1nccc(-c2ncnc(Nc3cccc(F)c3)n2)n1 (centres unmarked) [Compound 8] | 77 | 41 | 42 | 95 | 97 | 0 | 0 | – | – | – | – | – | – | – | – | – | – |
| CSCC(C)Nc1nccc(-c2ccnc(Nc3cccc(F)c3)c2)n1 (centres unmarked) [Compound 94, 4-[2-[(3-fluorophenyl)amino]-4-pyridinyl]-N-[1-methyl-2-(methylthio)ethyl]-2-pyrimidinamine] | – | – | – | – | – | – | – | 0 | 0 | 69 | 95 | 89 | 0 | 72 | – | – | – |
| Clc1ccccc1Nc1cc(-c2ccnc(NC3CCOCC3)n2)ccn1 [Compound 101, 4-[2-[(2-chlorophenyl)amino]-4-pyridinyl]-N-(tetrahydro-2H-pyran-4-yl)-2-pyrimidinamine] | – | – | – | – | – | – | – | 97 | 92 | 53 | 100 | 99 | 97 | 99 | – | – | – |
| COC[C@H](C)Nc1nccc(-c2ncnc(Nc3ccc(C)cc3)n2)n1 [Compound 20] | 91 | 96 | 20 | 100 | 74 | 0 | 99 | – | – | – | – | – | – | – | – | – | – |
| Cc1cc(Cl)ccc1Nc1cc(-c2ccnc(NC3CCOCC3)n2)ccn1 [Compound 103, 4-[2-[(4-chloro-2-methylphenyl)amino]-4-pyridinyl]-N-(tetrahydro-2H-pyran-4-yl)-2-pyrimidinamine] | – | – | – | – | – | – | – | 0 | 99 | 1 | 100 | 97 | 0 | 0 | – | – | – |
| COC[C@H](C)Nc1nccc(-c2ncnc(Nc3ccc(F)c(F)c3)n2)n1 [Compound 29] | 99 | – | 90 | 100 | 100 | – | 91 | – | – | – | – | – | – | – | 97* % | – | – |
| COC[C@H](C)Nc1nccc(-c2ncnc(Nc3cccc(I)c3)n2)n1 [Compound 12] | 96 | 98 | 0 | 100 | 79 | – | 37 | – | – | – | – | – | – | – | – | – | – |
| COC[C@H](C)Nc1nccc(-c2ncnc(Nc3cc(Cl)cc(Cl)c3)n2)n1 [Compound 28] | 90 | 85 | 0 | 99 | 73 | 96 | – | – | – | – | – | – | – | – | – | 84* % | – |
| COC[C@H](C)Nc1nccc(-c2ncnc(Nc3ccc(C)c(C)c3)n2)n1 [Compound 24] | 99 | 100 | 24 | 100 | 97 | – | 70 | – | – | – | – | – | – | – | – | – | – |
| COCC(C)Nc1nccc(-c2ccnc(Nc3c(F)cccc3Cl)c2)n1 (centres unmarked) [Compound 79] | 0 | – | 5 | 99 | 99 | 96 | 94 | – | – | – | – | – | – | – | – | – | 0 |
| Cc1ccc2ccccc2c1Nc1cc(-c2ccnc(NC3CCOCC3)n2)ccn1 [Compound 89] | 89 | – | 0 | 100 | 95 | 0 | 99 | – | – | – | – | – | – | – | – | – | 74 |
| COC[C@H](C)Nc1nccc(-c2ncnc(Nc3ccc(F)cc3)n2)n1 [Compound 13] | 96 | – | 26 | 100 | 100 | – | 87 | – | – | – | – | – | – | – | 98* % | – | – |
| COCC(C)Nc1nccc(-c2ccnc(Nc3ccc(C#N)cc3)c2)n1 (centres unmarked) [Compound 63] | 0 | – | 41 | 0 | 80 | 90 | 0 | – | – | – | – | – | – | – | – | – | 0 |
